{
  "source": "patent US20190030023A1",
  "about": "“METHODS FOR TREATING CANCER” (X4 Pharmaceuticals, Inc., priority 2016, published 2019)",
  "key": {"[1]": {"test_system": "murine models of melanoma, renal cell carcinoma, and ovarian cancer", "conditions": "cited from earlier work"}, "[2]": {"test_system": "pancreatic adenocarcinoma", "conditions": "cited from earlier work"}, "[3]": {"test_system": "unresectable or metastatic melanoma", "conditions": "Phase 3 trial, P<0.001 pembrolizumab vs ipilimumab; cited from earlier work"}, "[4]": {"assay": "Solubility of X4P-001 by pH and in water", "format": "physicochemical", "conditions": "for solubility: aqueous buffer"}, "[5]": {"assay": "in vivo", "conditions": "terminal half-life", "procedure": "In certain embodiments, the dosage composition may be provided twice a day in divided dosage, approximately 12 hours apart. In other embodiments, the dosage composition may be provided once daily. […] Dosage for oral administration may be from about 100 mg to about 1200 mg once or twice per day."}, "[6]": {"conditions": "Phase 1 and 2a trials; suggests high tissue penetrance; cited from earlier work"}, "[7]": {"test_system": "circulating white blood cells (WBCs)", "conditions": "Phase 1 and 2a trials, oral administration; cited from earlier work"}},
  "data": [
    {"compound": "c1cc(CN2CCCNCCNCCCNCC2)ccc1CN1CCCNCCNCCCNCC1", "note": "[Plerixafor]", "values": [
      {"measurement": "anti-tumor activity, including decreased metastasis and increased overall survival", "setting": "[1]", "result": "significant anti-tumor activity"},
      {"measurement": "T-cell accumulation among the cancer cells", "setting": "[2]; CXCR4 antagonist alone", "result": "induced rapid T-cell accumulation"},
      {"measurement": "tumor growth", "setting": "[2]; in combination with anti-PD-L1", "result": "synergistically decreased tumor growth"}
    ]},
    {"compound": "ipilimumab: anti-CTLA-4 antibody", "values": [
      {"measurement": "objective response rate", "setting": "[3]", "result": 12, "unit": "%"}
    ]},
    {"compound": "Pembrolizumab: humanized IgG4 kappa monoclonal antibody that blocks the interaction between PD-1 and its ligands, PD-L1 and PD-L2", "values": [
      {"measurement": "objective response rate", "setting": "[3]", "result": 33, "unit": "%"}
    ]},
    {"compound": "NCCCCN(Cc1nc2ccccc2[nH]1)[C@H]1CCCc2cccnc21", "note": "[X4P-001]", "values": [
      {"measurement": "solubility", "setting": "[4]; pH 9.0 (sparingly soluble)", "result": 10.7, "unit": "mg/mL"},
      {"measurement": "solubility", "setting": "[4]; pH 10.0 (slightly soluble)", "result": 2, "unit": "mg/mL"},
      {"measurement": "solubility", "setting": "[4]; pH range 3.0 to 8.0 (freely soluble)", "result": "> 100", "unit": "mg/mL"},
      {"measurement": "solubility in water", "setting": "[4]; water", "result": "only slightly soluble"},
      {"measurement": "half-life", "setting": "[5]; approximate value", "result": "~14.5", "unit": "h"},
      {"measurement": "half-life", "setting": "[5]; range", "result": "12 to 24", "unit": "h"},
      {"measurement": "volume of distribution (VL)", "setting": "[6]", "result": "high"},
      {"measurement": "pharmacodynamic activity: changes in circulating white blood cells (WBCs)", "setting": "[7]", "result": "dose- and concentration-related changes"},
      {"measurement": "anti-tumor activity, including decreased metastasis and increased overall survival", "setting": "[1]", "result": "significant anti-tumor activity"}
    ]}
  ]
}
